PubChem BioAssay (NCI)
“And” between values parts separate entries of the source, which are not always exact repeats. Equal values may be shown once.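 Results reflect a 48-hour exposure of cells in 96-well plates to compound at five concentrations. GI50 marks 50% less growth. TGI: concentration producing complete growth inhibition.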

Tests used:
Experiment in all cases: inhibition of tumour cell growth, NCI panel, 48 h
[1] = tested on: T-47D breast
[2] = tested on: UACC-62 melanoma
[3] = tested on: A549 NSCLC
[4] = tested on: NCI-H522 lung
[5] = tested on: SN12C renal
[6] = tested on: ACHN renal
[7] = tested on: SK-MEL-5 melanoma
[8] = tested on: RXF 393 renal

Row | Compound | GI50 [1] | TGI [1] | GI50 [2] | TGI [2] | GI50 [3] | TGI [3] | GI50 [4] | TGI [4] | GI50 [5] | TGI [5] | GI50 [6] | TGI [6] | GI50 [7] | TGI [7] | GI50 [8] | TGI [8]
1 | CCOC(=O)Cc1csc(NC(=O)C(OC(=O)c2ccc(Cl)cc2)c2ccccc2)n1 (centres undefined) | 63.1 µM | > 100 µM | 20.3 µM | 46.5 µM | 47.1 µM | > 100 µM | 46 µM | > 100 µM | 37.8 µM | > 100 µM | 62.1 µM | > 100 µM | 18 µM | 36 µM | 28.6 µM | 95.8 µM
2 | CCOc1ccc(-c2nc3ccc(-c4nc5ccc(N6CCN(C)CC6)cc5[nH]4)cc3[nH]2)cc1 | 0.299 µM | 2.2 µM | 0.511 µM | 1.96 µM | 1.24 µM and 1.04 µM | 3.13 µM and 3.35 µM | 0.09 µM | 0.442 µM | 0.342 µM | 1.61 µM | 0.631 µM and 1.18 µM | 1.89 µM and 2.7 µM | 0.0761 µM | 1.42 µM |  | 
3 | COc1ccc(O)c(/C=N\Nc2ccccc2)c1 |  | > 100 µM |  | 12.3 µM |  | 48.4 µM |  | 49.2 µM |  | > 100 µM |  | > 100 µM |  | > 100 µM |  | > 100 µM
4 | CC[C@]12CN3CCc4c([nH]c5ccccc45)[C@@](C(=O)OC)(c4cc5c(cc4OC)N(C)[C@H]4[C@@](O)(C(=O)OC)[C@H](OC(C)=O)[C@]6(CC)C=CCN7CC[C@]54[C@@H]76)CC(C3)[C@H]1O2 (some centres undefined) |  |  | 0.224 µM | 76.9 µM and > 50 µM | 0.599 µM | > 100 µM |  |  | 0.408 µM | 15.4 µM and > 50 µM | 2.14 µM | > 100 µM | 0.0888 µM | 0.887 µM |  | > 100 µM
5 | COc1cccc2c1C(=O)c1c(O)c3c(c(O)c1C2=O)C[C@](O)(C(=O)CO)C[C@H]3O[C@@H]1C[C@@H](NC(=O)CCCN(C)C2(c3ccc(F)cc3)CC3CCC2C3)[C@H](O)[C@@H](C)O1 (some centres undefined) |  |  | 0.889 µM | 1.92 µM |  |  | 0.827 µM | 1.61 µM | 5.13 µM | 14 µM | 0.736 µM | 1.4 µM | 0.859 µM | 1.57 µM | 0.696 µM | 1.41 µM
6 | CCOc1ccccc1/C=N\N=C(N/N=C/c1ccccc1OCC)N/N=C/c1ccccc1OCC |  |  | 2.05 µM | > 100 µM | 2.65 µM | > 100 µM |  |  | 2.32 µM | > 100 µM | 1.56 µM | > 100 µM | 1.69 µM | 3.71 µM | 2.67 µM | > 100 µM
7 | CCN1/C(=C/C(C)=C/c2sc3ccc4ccccc4c3[n+]2CC)Sc2ccc3ccccc3c21 |  |  | 0.31 µM | 1.8 µM | 0.0271 µM | 0.272 µM | 0.121 µM | 0.528 µM | 0.189 µM | 1.05 µM | 0.147 µM | 0.614 µM | 0.123 µM | 0.352 µM |  | 
8 | OCC1OC(N2C=C(c3nc4ccccc4s3)C3C=CC=CC32)C(O)C(O)C1O (centres undefined) |  |  | 12.5 µM | 36.8 µM | 18.7 µM | > 50 µM | > 50 µM | > 50 µM | 28.8 µM | > 50 µM | 14.7 µM | > 50 µM | 12.1 µM | 30.5 µM | 18.9 µM | > 50 µM
9 | CCCCCCOC(=O)CC1=C(C)/C(=C/c2[nH]c(-c3ccc[nH]3)cc2OC)N=C1C | 0.0367 µM | 0.545 µM |  |  | 0.361 µM | 1.26 µM | 0.0506 µM | 1.12 µM |  |  | 0.0663 µM | 0.779 µM |  |  | 0.163 µM | 1.07 µM
